From PubChem BioAssay (NCI)
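Tested at 5 concentrations; 48 h exposure; 96-well plates; endpoints linearly interpolated, else capped at highest concentration. TGI is the concentration that stops growth completely.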

How the values were obtained:
Experiment in all cases: NCI tumour cell line growth inhibition, 48 h
A498 renal = tested on: A498 renal
HCC-2998 colon = tested on: HCC-2998 colon
HL-60(TB) leukemia = tested on: HL-60(TB) leukemia
K-562 leukemia = tested on: K-562 leukemia
MCF7 breast = tested on: MCF7 breast
NCI-H23 lung = tested on: NCI-H23 lung
OVCAR-3 ovarian = tested on: OVCAR-3 ovarian
RPMI-8226 leukemia = tested on: RPMI-8226 leukemia
SK-MEL-28 melanoma = tested on: SK-MEL-28 melanoma
SK-MEL-5 melanoma = tested on: SK-MEL-5 melanoma
SNB-19 CNS = tested on: SNB-19 CNS
TK-10 renal = tested on: TK-10 renal
CAKI-1 renal = tested on: CAKI-1 renal

Structure (SMILES) | TGI (A498 renal) [µM] | TGI (HCC-2998 colon) [µM] | TGI (HL-60(TB) leukemia) [µM] | TGI (K-562 leukemia) [µM] | TGI (MCF7 breast) [µM] | TGI (NCI-H23 lung) [µM] | TGI (OVCAR-3 ovarian) [µM] | TGI (RPMI-8226 leukemia) [µM] | TGI (SK-MEL-28 melanoma) [µM] | TGI (SK-MEL-5 melanoma) [µM] | TGI (SNB-19 CNS) [µM] | TGI (TK-10 renal) [µM] | TGI (CAKI-1 renal) [µM]
O=[N+]([O-])c1sc2ccc(Cl)cc2c1Nc1ccc(Cl)cc1 | > 100 | > 100 | > 100 | > 100 | > 100 | > 100 | > 100 | > 100 | > 100 | > 100 | > 100 | > 100 | –
O=C(CN(c1ccc(S(=O)(=O)O)cc1)c1ccc(S(=O)(=O)O)cc1)Nn1cnc2ccc(S(=O)(=O)N(c3ccc(S(=O)(=O)O)cc3)c3ccc(S(=O)(=O)O)cc3)cc2c1=O | > 100 | > 100 | > 100 | > 100 | > 100 | > 100 | > 100 | > 100 | > 100 | > 100 | > 100 | > 100 | > 100
COC(=O)[C@@H]1Cc2cc(O)c(O)cc2C2(CCN(C)CC2)O1 | > 10 | > 10 | > 10 | – | > 10 | > 10 | > 10 | > 10 | > 10 | > 10 | > 10 | > 10 | > 10
O=C(CCOS(=O)(=O)CF)N1CCN(C(=O)CCOS(=O)(=O)CF)CC1 | > 100 | > 100 | 29.6 | > 100 | > 100 | > 100 | > 100 | > 46.4 | > 100 | > 100 | > 100 | > 100 | > 100
CC(O[Si](c1ccccc1)(c1ccccc1)C(C)(C)C)[C@H](NC(=O)OC(C)(C)C)C(=O)O (stereo not given in full) | > 100 | > 100 | 59.8 | > 100 | > 100 | > 100 | – | > 100 | > 100 | 50.8 | > 100 | > 100 | > 100
Oc1ccc(-c2cn3cc(C(F)(F)F)ccc3n2)cc1 | > 100 | 42.3 | > 100 | > 100 | > 100 | > 100 | > 100 | – | > 100 | > 100 | > 100 | > 100 | > 100
CC(=O)Oc1c(C)c2c(c3ccccc13)OC(C)(C)C2 | 38.2 | 32.7 | 69.6 | > 100 | 35.4 | 28 | 52 | 39.1 | 32.9 | 22.9 | 69.7 | 32.9 | 40.3
CCOC(=O)NC(=S)c1ccc(O)c2ccccc12 | > 100 | > 100 | 39.9 | > 100 | > 100 | > 100 | > 100 | > 100 | > 100 | > 100 | > 100 | – | > 100
Cc1cc2c(cc1C)C(=O)/C(=N/Nc1ccc(F)cc1)CCO2 | > 100 | > 100 | > 100 | > 100 | > 100 | > 100 | > 100 | > 100 | > 100 | > 100 | > 100 | > 100 | > 100
CC(=O)N=C1N(/C=C2\C(=O)Oc3ccccc3C2=O)C(=O)/C(=C/c2ccccc2Cl)N1C | 96.7 | > 100 | > 100 | > 100 | > 100 | > 100 | – | > 100 | > 100 | > 100 | > 100 | – | > 100
COc1ccc(-c2nc(-c3cnccn3)n(COCCO)n2)cc1 | – | > 100 | > 100 | > 100 | > 100 | > 100 | > 100 | > 100 | > 100 | > 100 | > 100 | > 100 | –
O=C1C(Cl)=C(N2CCN(c3ccccn3)CC2)C(=O)c2ncccc21 | 23.8 | 30.4 | 4.79 | 5.78 | 3.21 | 5.47 | 3.21 | 5.7 | 4.38 | 4.22 | 25 | 9.75 | 4.01
O=C1CN(c2ccc(Cl)cc2)C(=O)CN1NCNN1CC(=O)N(c2ccc(Cl)cc2)CC1=O | > 100 | > 100 | > 100 | – | > 100 | > 100 | > 100 | > 100 | > 100 | > 100 | > 100 | > 100 | > 100
C=CCn1cnc2c(=O)[nH]c(Nc3ccccc3)nc21 | > 100 | > 100 | > 100 | – | > 100 | – | > 100 | > 100 | > 100 | > 100 | > 100 | > 100 | > 100
CCCCCCCCCc1c(O)c(O)c(CCCCCCCCC)c(CCCCCCCCC)c1CCCCCCCCC | > 100 | > 100 | 50 | > 100 | > 100 | > 100 | > 100 | > 100 | > 100 | > 100 | > 100 | > 100 | > 100
COc1ccc(/C=C2/CCS(=O)(=O)c3ccc(C)cc3C2=O)cc1OC | – | 19.6 | 51.5 | > 100 | > 100 | 27.3 | > 100 | 37.6 | 56.5 | – | 33.3 | 37.5 | 47.5
CN(C)c1ccc(C(=NN)c2ccc(N(C)C)cc2)cc1 | > 81.7 | 3.73 | 3.35 | > 56.9 | > 100 | > 37.7 | – | 10.3 | > 100 | > 100 | > 100 | 3.66 | > 51
O=C(N/N=C(/COc1cccc(Cl)c1)N=Cc1cccnc1)c1ccncc1 | > 100 | > 100 | > 100 | > 100 | > 100 | > 100 | > 100 | > 100 | > 100 | – | > 100 | > 100 | > 100

Structure (SMILES) | TGI (A498 renal) [µM] | TGI (HCC-2998 colon) [µM] | TGI (HL-60(TB) leukemia) [µM] | TGI (K-562 leukemia) [µM] | TGI (MCF7 breast) [µM] | TGI (NCI-H23 lung) [µM] | TGI (OVCAR-3 ovarian) [µM] | TGI (RPMI-8226 leukemia) [µM] | TGI (SK-MEL-28 melanoma) [µM] | TGI (SK-MEL-5 melanoma) [µM] | TGI (SNB-19 CNS) [µM] | TGI (TK-10 renal) [µM] | TGI (CAKI-1 renal) [µM]
O=C1C(Cl)C(c2cc3cc(Br)ccc3nc2Cl)N1c1c(Cl)cccc1Cl (stereo not given) | > 25 | > 25 | > 25 | 18 | 22.6 | > 25 | > 25 | 23 | > 25 | > 25 | > 25 | > 25 | > 25
CC(C)(C)NC(=O)C12C3C4C1C1C2C3C41C(=O)NC(C)(C)C (stereo not given) | > 100 | > 100 | > 100 | > 100 | > 100 | > 100 | > 100 | – | > 100 | > 100 | > 100 | > 100 | > 100
c1ccc(C2=Nc3cccc4cccc(c34)N2)cc1 | > 100 | > 100 | 8.14 | > 72.9 | > 69.4 | > 100 | 45.2 | > 84.6 | > 100 | > 100 | > 100 | > 72 | > 94.6
COC(=O)c1c2c(cc3c1CC1(Cc4cc5c(cc4C1)CCC5)C3)CCC2 | > 100 | > 100 | > 100 | > 100 | > 100 | > 100 | > 100 | > 100 | > 100 | > 100 | > 100 | > 100 | > 100
CC[C@@H](/C=C\CCC1(C[C@@H](N)CCC=C(C)C)OCCO1)O[Si](C(C)C)(C(C)C)C(C)C | 32.4 | 26 | 23 | 31.1 | 30.2 | 38.2 | 38.8 | 38 | 38.4 | 32.7 | 32.8 | 31.2 | 35.4
O=S(=O)(OI(O)CC(F)(F)F)C(F)(F)F | > 100 | > 100 | > 100 | > 100 | > 100 | > 100 | > 100 | > 100 | > 100 | > 100 | – | > 100 | > 100
CN(C)C(=O)C1CCN(Cc2c[nH]c3ccccc23)CC1 | > 100 | – | > 100 | > 100 | > 100 | > 100 | > 100 | > 100 | > 100 | > 100 | > 100 | > 100 | > 100
Cc1c(-c2ccccc2)c(C#N)c2nnn(-c3cccc(Cl)c3)c(=O)n12 | 98.5 | > 100 | > 100 | > 100 | > 100 | > 100 | > 100 | > 100 | > 100 | > 100 | – | > 100 | > 100
CC(=O)OCC(OC(C)=O)C(OC(C)=O)C(OC(C)=O)C(/C=N\Nc1nc2ccccc2c(=O)[nH]1)=N/Nc1nc2ccccc2c(=O)[nH]1 (stereo not given) | – | > 100 | > 100 | > 100 | > 100 | > 100 | > 100 | > 100 | > 100 | > 100 | > 100 | – | > 100
COCCOCCOCCOc1ccc(C(C#N)N(CCc2ccccc2)C(=O)c2cc(C(=O)N(CCc3ccccc3)C(C#N)c3ccc(OCCOCCOCCOC)cc3)cc(C(=O)N(CCc3ccccc3)C(C#N)c3ccc(OCCOCCOCCOC)cc3)c2)cc1 (stereo not given) | > 100 | > 100 | > 100 | > 100 | > 100 | > 100 | > 100 | – | > 100 | > 100 | > 100 | > 100 | –
BrCC(Br)(c1ccccc1)c1ccccc1-c1cc(-c2ccccc2)cc(-c2ccccc2)n1 (stereo not given) | 15.6 | 9.8 | 2.33 | 8.69 | 4.12 | 36 | – | 18.2 | 25.3 | 3.82 | 31.9 | 21.5 | 23.4
CN(C)CCCNC(=O)c1cc(NC(=O)c2cc(NC(=O)[C@@H]3C[C@H]3C(=O)Nc3cc(C(=O)Nc4cc(C(=O)NCCCN(C)C)n(C)c4)n(C)c3)cn2C)cn1C | – | > 100 | > 100 | > 100 | > 100 | > 100 | – | > 100 | > 100 | > 100 | > 100 | – | > 100
CCC(=O)NCCc1c2c3c(ccnc3c3ncsc13)-c1ccccc1N2 | > 100 | – | > 13.4 | > 100 | > 100 | > 100 | > 66.5 | 19.8 | > 100 | 34.2 | > 100 | > 100 | > 100
OC(c1ccccc1)C(F)(F)c1nc2ccccc2o1 (stereo not given) | > 100 | > 100 | > 100 | 75.3 | > 100 | > 100 | – | > 100 | > 100 | > 100 | > 100 | > 100 | > 100
NC(N)=NC(N)=Nc1ccccc1 (tested in a mixture with another compound) | > 100 | > 100 | > 100 | > 100 | > 100 | > 100 | > 100 | – | > 100 | > 100 | > 100 | > 100 | > 100
O=C1NC(S(=O)(=O)O)=NNC12c1ccccc1-c1ccccc12 | – | > 10 | > 10 | > 10 | > 10 | > 10 | – | > 10 | > 10 | > 10 | > 10 | > 10 | > 10
O=C(NNC(=S)NCc1ccccc1)C12CC3CC(CC(C3)C1)C2 | > 100 | > 100 | 51.7 | > 100 | > 100 | > 100 | > 100 | > 100 | > 100 | – | > 100 | > 100 | –
